Measurements reported in ChEMBL document CHEMBL4417634, “DNA2 inhibitors for cancer treatment” (2018).
pIC50: −log10 of the molar value. The source made the active and inactive calls. The calls are words filed in the database; no cut-off is given here.

Legend:
Saccharomyces cerevisiae [1] = assay: Potentiation of DNA damaging agent methyl methane sulfonate-induced cytotoxicity in yeast cells by dilution assay; type: functional, organism-based
Saccharomyces cerevisiae [2] = assay: Potentiation of DNA damaging agent methyl methane sulfonate-induced cytotoxicity in yeast cells deficient in rad27 by dilution assay; type: functional, organism-based
Saccharomyces cerevisiae [3] = assay: Potentiation of high temperature-induced cytotoxicity in yeast cells by dilution assay; type: functional, organism-based
Saccharomyces cerevisiae [4] = assay: Potentiation of high temperature-induced cytotoxicity in yeast cells deficient in rad27 by dilution assay; type: functional, organism-based
HCT-116 [5] = assay: Cytotoxicity against human HCT116 cells assessed as reduction in cell viability at 10 to 10000 nM in presence of siFEN1 by tryphan blue staining based assay; type: functional
HCT-116 [6] = assay: Cytotoxicity against human HCT116 cells assessed as reduction in cell viability at 10 to 10000 nM in presence of siEXO1 by tryphan blue staining based assay; type: functional
Mus musculus = organism: Mus musculus; assay: Cytotoxicity against dna2 (-/-) mouse MES cells assessed as cell survival relative to control; type: functional, cell-based
MCF7 [7] = assay: Cytotoxicity against human MCF7 cells transfected with shDNA2 assessed as cell survival relative to control; type: functional, cell-based
MCF-10A = assay: Cytotoxicity against human MCF10A cells assessed as reduction in cell viability incubated for 7 days; type: cell-based; settings: 168 h
MCF7 [8] = assay: Cytotoxicity against human MCF7 cells assessed as reduction in cell viability incubated for 7 days; type: functional, cell-based; settings: MCF7, 168 h
MDA-MB-231 = assay: Cytotoxicity against human MDA-MB-231 cells assessed as reduction in cell viability incubated for 7 days; type: functional, cell-based; settings: MDA-MB-231, 168 h
FHC = assay: Cytotoxicity against human FHC cells assessed as reduction in cell viability incubated for 7 days; type: cell-based; settings: 168 h
DLD-1 = assay: Cytotoxicity against human DLD1 cells assessed as reduction in cell viability incubated for 7 days; type: functional, cell-based; settings: DLD-1, 168 h
HCT-8 = assay: Cytotoxicity against human HCT8 cells assessed as reduction in cell viability incubated for 7 days; type: functional, cell-based; settings: HCT-8, 168 h
HT-29 = assay: Cytotoxicity against human HT-29 cells assessed as reduction in cell viability incubated for 7 days; type: functional, cell-based; settings: HT-29, 168 h
HCT-116 [9] = assay: Cytotoxicity against human HCT116 cells assessed as reduction in cell viability incubated for 7 days; type: functional, cell-based; settings: HCT-116, 168 h
WiDr = assay: Cytotoxicity against human WiDr cells assessed as reduction in cell viability incubated for 7 days; type: functional, cell-based; settings: 168 h
RWPE-1 = assay: Cytotoxicity against human RWPE1 cells assessed as reduction in cell viability incubated for 7 days; type: cell-based; settings: RWPE-1, 168 h
PC-3 = assay: Cytotoxicity against human PC3 cells assessed as reduction in cell viability incubated for 7 days; type: functional, cell-based; settings: PC-3, 168 h
LNCaP C4-2 = assay: Cytotoxicity against human C4-2 cells assessed as reduction in cell viability incubated for 7 days; type: functional, cell-based; settings: LNCaP C4-2, 168 h
CWR22R = assay: Cytotoxicity against human 22Rv1 cells assessed as reduction in cell viability incubated for 7 days; type: functional, cell-based; settings: 22Rv1, 168 h
[10] = Cytotoxicity against human CWRR1 cells assessed as reduction in cell viability incubated for 7 days; type: functional, cell-based; settings: 168 h
IMR-90 = assay: Cytotoxicity against human IMR90 cells assessed as reduction in cell viability incubated for 7 days; type: cell-based; settings: IMR-90, 168 h
A549 = assay: Cytotoxicity against human A549 cells assessed as reduction in cell viability incubated for 7 days; type: functional, cell-based; settings: A549, 168 h
NCI-H460 = assay: Cytotoxicity against human NCI-H460 cells assessed as reduction in cell viability incubated for 7 days; type: functional, cell-based; settings: NCI-H460, 168 h
NCI-H2030 = assay: Cytotoxicity against human NCI-H2030 cells assessed as reduction in cell viability incubated for 7 days; type: functional, cell-based; settings: NCI-H2030, 168 h
HCT-116 [11] = assay: Cell cycle arrest in human HCT116 cells assessed as accumulation at G1 phase at 10 uM incubated for 48 hrs by propidium iodide staining based flow cytometry (reference value: 76.2%); type: functional
HCT-116 [12] = assay: Cell cycle arrest in human HCT116 cells assessed as accumulation at S phase at 10 uM incubated for 48 hrs by propidium iodide staining based flow cytometry (reference value: […]); type: functional
HCT-116 [13] = assay: Cell cycle arrest in human HCT116 cells assessed as accumulation at G2/M phase at 10 uM incubated for 48 hrs by propidium iodide staining based flow cytometry (reference value: […]); type: functional
HCT-116 [14] = assay: Cell cycle arrest in human HCT116 cells assessed as accumulation at G1 phase at 50 uM incubated for 48 hrs by propidium iodide staining based flow cytometry (reference value: 76.2%); type: functional
HCT-116 [15] = assay: Cell cycle arrest in human HCT116 cells assessed as accumulation at S phase at 50 uM incubated for 48 hrs by propidium iodide staining based flow cytometry (reference value: […]); type: functional
HCT-116 [16] = assay: Cell cycle arrest in human HCT116 cells assessed as accumulation at G2/M phase at 50 uM incubated for 48 hrs by propidium iodide staining based flow cytometry (reference value: […]); type: functional
[17] = biological target: Flap endonuclease 1 (Homo sapiens) (UniProt P39748)
Chain of Flap endonuclease 1 (Homo sapiens) (P39748 whole entry): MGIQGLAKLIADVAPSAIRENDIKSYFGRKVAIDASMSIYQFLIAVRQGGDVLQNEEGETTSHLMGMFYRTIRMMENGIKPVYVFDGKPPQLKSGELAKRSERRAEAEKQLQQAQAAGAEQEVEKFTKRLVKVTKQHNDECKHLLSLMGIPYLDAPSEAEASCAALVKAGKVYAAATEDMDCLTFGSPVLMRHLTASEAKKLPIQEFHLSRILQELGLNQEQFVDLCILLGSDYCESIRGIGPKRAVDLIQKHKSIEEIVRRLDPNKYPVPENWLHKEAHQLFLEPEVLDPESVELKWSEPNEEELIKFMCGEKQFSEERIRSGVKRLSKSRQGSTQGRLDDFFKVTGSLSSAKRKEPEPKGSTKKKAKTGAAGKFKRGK

[18] = biological target: Exonuclease 1 (Homo sapiens) (UniProt Q9UQ84)
Chain of Exonuclease 1 (Homo sapiens) (Q9UQ84 whole entry): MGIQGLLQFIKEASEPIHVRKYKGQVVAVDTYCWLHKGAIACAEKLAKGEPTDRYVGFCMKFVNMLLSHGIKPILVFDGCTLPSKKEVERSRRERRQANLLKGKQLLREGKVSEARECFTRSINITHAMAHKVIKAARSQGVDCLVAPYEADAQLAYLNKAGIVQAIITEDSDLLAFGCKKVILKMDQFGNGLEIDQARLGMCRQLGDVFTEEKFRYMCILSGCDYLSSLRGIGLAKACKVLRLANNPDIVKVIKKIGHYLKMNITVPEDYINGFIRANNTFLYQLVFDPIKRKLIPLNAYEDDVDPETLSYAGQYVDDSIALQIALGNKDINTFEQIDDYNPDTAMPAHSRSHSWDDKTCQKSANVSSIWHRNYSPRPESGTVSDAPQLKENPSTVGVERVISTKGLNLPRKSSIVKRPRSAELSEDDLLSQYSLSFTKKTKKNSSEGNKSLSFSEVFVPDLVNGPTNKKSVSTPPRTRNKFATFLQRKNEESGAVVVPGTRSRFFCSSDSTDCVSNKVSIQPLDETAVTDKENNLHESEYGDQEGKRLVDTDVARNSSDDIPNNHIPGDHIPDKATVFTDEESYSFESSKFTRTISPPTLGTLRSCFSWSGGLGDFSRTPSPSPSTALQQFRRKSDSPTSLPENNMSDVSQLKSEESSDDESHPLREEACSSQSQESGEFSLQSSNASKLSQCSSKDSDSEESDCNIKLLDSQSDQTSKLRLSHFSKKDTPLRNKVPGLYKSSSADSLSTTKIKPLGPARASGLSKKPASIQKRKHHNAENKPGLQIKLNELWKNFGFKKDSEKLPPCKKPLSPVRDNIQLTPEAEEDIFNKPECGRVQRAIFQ

HCT-116 [19] = assay: Cytotoxicity against human HCT116 cells assessed as reduction in cell viability at 10 to 10000 nM in presence of siMRE11 by tryphan blue staining based assay; type: functional
Homo sapiens = organism: Homo sapiens; assay: Suppression of 125 nM cisplatin-induced cytotoxicity in FANCD2 (-/-) human PD20 cells assessed as increase in cell survival at 10 uM; type: functional, cell-based
U2OS [20] = assay: Induction of single-stranded DNA accumulation in human U2OS cells assessed as reduction in P-RPA foci at 20 uM; type: functional, cell-based
U2OS [21] = assay: Induction of single-stranded DNA accumulation in human U2OS cells assessed as reduction in P-RPA foci at 50 uM; type: functional, cell-based

With `CCCCNC(=O)c1c[nH]c2c([N+](=O)[O-])cccc2c1=O` the Activity (Saccharomyces cerevisiae [1]) was “inactive”, the Activity (Saccharomyces cerevisiae [2]) was “Active” and the Activity (Saccharomyces cerevisiae [3]) was “inactive”. For the same compound, the Activity (Saccharomyces cerevisiae [4]) was “Active”.

In the case of `O=C(O)c1cnc2c([N+](=O)[O-])cccc2c1O`, the Activity (HCT-116 [5]) was “Active”, the Activity (HCT-116 [6]) was “Active” and the Activity (Mus musculus) was “Active”. The Activity (MCF7 [7]) was “Active”, the pIC50 (MCF-10A) was 4.61 and the pIC50 (MCF7 [8]) was 5.14. The pIC50 (MDA-MB-231) was 4.33, the pIC50 (FHC) was 4.12 and the pIC50 (DLD-1) was 4.60. The pIC50 (HCT-8) was 4.56, the pIC50 (HT-29) was 4.39 and the pIC50 (HCT-116 [9]) was 4.62. It also gave a pIC50 (WiDr) of 4.28, a pIC50 (RWPE-1) of 4.10 and a pIC50 (PC-3) of 4.68. It also gave a pIC50 (LNCaP C4-2) of 4.71, a pIC50 (CWR22R) of 4.93 and a pIC50 [10] of 4.80. For the same compound, the pIC50 (IMR-90) was 4.02, the pIC50 (A549) was 4.63 and the pIC50 (NCI-H460) was 4.36. For the same compound, the pIC50 (NCI-H2030) was 4.75, the Activity (HCT-116 [11]) was 66.9% and the Activity (HCT-116 [12]) was 13%. The Activity (HCT-116 [13]) was 12.6%, the Activity (HCT-116 [14]) was 54.1% and the Activity (HCT-116 [15]) was 17.2%. For the same compound, the Activity (HCT-116 [16]) was 28.1%, the inhibition [17] was “inactive” and the inhibition [18] was “inactive”. The Activity (HCT-116 [19]) was “Active”, the Activity (Saccharomyces cerevisiae [1]) was “inactive” and the Activity (Saccharomyces cerevisiae [2]) was “Active”. The Activity (Saccharomyces cerevisiae [3]) was “inactive”, the Activity (Saccharomyces cerevisiae [4]) was “Active” and the Activity (Homo sapiens) was “Active”. The Activity (U2OS [20]) was “inactive”.

For `N=C1NC(=O)/C(=C/c2ccc(O)cc2)S1`, the Activity (U2OS [21]) was “inactive”.
